According to ChEMBL document CHEMBL1201862, “PubChem BioAssay data set” (2004):
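Compound exposure: 48 hours, 5 concentrations, 96-well plates. At the GI50, growth is halved.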 Activity calls are given as the source filed them. No stated cut-off is given here; in the data, active = GI50 up to about 1.1 µM and inactive = higher.

Experiments:
Assay in all cases: DTP human tumour cell line panel, 48 h
MDA-N = system: MDA-N
Hs-578T = system: Hs-578T
786-0 = system: 786-0
PC-3 = system: PC-3
UO-31 = system: UO-31
K562 = system: K562
EKVX = system: EKVX
OVCAR-5 = system: OVCAR-5
MOLT-4 = system: MOLT-4
A498 = system: A498
T47D = system: T47D
HCT-15 = system: HCT-15
Malme-3M = system: Malme-3M
ACHN = system: ACHN
LOX IMVI = system: LOX IMVI
BT-549 = system: BT-549
SW-620 = system: SW-620
SR = system: SR
CCRF-CEM = system: CCRF-CEM
SF-268 = system: SF-268
NCI-H460 = system: NCI-H460
HL-60 = system: HL-60
A549 = system: A549
MCF7 = system: MCF7
SNB-75 = system: SNB-75
SK-MEL-2 = system: SK-MEL-2
OVCAR-8 = system: OVCAR-8
M14 = system: M14
TK-10 = system: TK-10
RXF 393 = system: RXF 393
UACC-257 = system: UACC-257
SNB-19 = system: SNB-19
IGROV-1 = system: IGROV-1
KM12 = system: KM12
SK-MEL-5 = system: SK-MEL-5
HOP-92 = system: HOP-92
NCI-H23 = system: NCI-H23
NCI-H522 = system: NCI-H522
NCI/ADR-RES = system: NCI/ADR-RES
SK-OV-3 = system: SK-OV-3
SF-295 = system: SF-295
COLO 205 = system: COLO 205
CAKI-1 = system: CAKI-1
MDA-MB-231 = system: MDA-MB-231
HT-29 = system: HT-29
SK-MEL-28 = system: SK-MEL-28
RPMI-8226 = system: RPMI-8226
U-251 = system: U-251
MDA-MB-435 = system: MDA-MB-435
NCI-H226 = system: NCI-H226
SF-539 = system: SF-539
HCT-116 = system: HCT-116
OVCAR-3 = system: OVCAR-3
UACC-62 = system: UACC-62
HOP-62 = system: HOP-62
OVCAR-4 = system: OVCAR-4
SN12C = system: SN12C
DU-145 = system: DU-145
HCC 2998 = system: HCC 2998

## COc1cc2c3c(n(C)c(=O)c2cc1OC)-c1cc2c(cc1/C3=C/CCCCBr)OCO2
MDA-N
  GI50: > 100 µM (inactive)
Hs-578T
  GI50: > 100 µM (inactive)
786-0
  GI50: 17.1 µM (inactive)
PC-3
  GI50: > 100 µM (inactive)
UO-31
  GI50: 71 µM (inactive)
K562
  GI50: 35.6 µM (inactive)
EKVX
  GI50: > 100 µM (inactive)
OVCAR-5
  GI50: > 100 µM (inactive)
MOLT-4
  GI50: 4.51 µM (inactive)
A498
  GI50: 19.8 µM (inactive)
T47D
  GI50: 3.76 µM (inactive)
HCT-15
  GI50: > 100 µM
Malme-3M
  GI50: > 100 µM (inactive)
ACHN
  GI50: 4.4 µM (inactive)
LOX IMVI
  GI50: 62.8 µM (inactive)
BT-549
  GI50: > 100 µM (inactive)
SW-620
  GI50: 16.1 µM (inactive)
SR
  GI50: 1.57 µM (inactive)
CCRF-CEM
  GI50: 1.7 µM (inactive)
SF-268
  GI50: 37.4 µM (inactive)
NCI-H460
  GI50: 17.8 µM (inactive)
HL-60
  GI50: 30.3 µM (inactive)
A549
  GI50: > 100 µM (inactive)
MCF7
  GI50: 4.73 µM (inactive)
SNB-75
  GI50: 11.6 µM (inactive)
SK-MEL-2
  GI50: > 100 µM (inactive)
OVCAR-8
  GI50: > 100 µM (inactive)
M14
  GI50: 32.9 µM (inactive)
TK-10
  GI50: > 100 µM (inactive)
RXF 393
  GI50: > 100 µM (inactive)
UACC-257
  GI50: > 100 µM (inactive)
SNB-19
  GI50: > 100 µM (inactive)
IGROV-1
  GI50: 6.56 µM (inactive)
KM12
  GI50: > 100 µM (inactive)
SK-MEL-5
  GI50: 54 µM (inactive)
HOP-92
  GI50: 57.7 µM (inactive)
NCI-H23
  GI50: 24.8 µM (inactive)
NCI-H522
  GI50: 4.16 µM (inactive)
NCI/ADR-RES
  GI50: > 100 µM (inactive)
SK-OV-3
  GI50: > 100 µM (inactive)
SF-295
  GI50: 4.5 µM (inactive)
COLO 205
  GI50: > 100 µM (inactive)
CAKI-1
  GI50: 5.86 µM (inactive)
MDA-MB-231
  GI50: > 100 µM (inactive)
HT-29
  GI50: > 100 µM (inactive)
SK-MEL-28
  GI50: > 100 µM (inactive)
RPMI-8226
  GI50: 2.54 µM (inactive)
U-251
  GI50: 40.9 µM (inactive)

## N=C(N)N/N=C/c1c(-c2ccccc2)nc2ccn3c(/C=N/N=C(N)N)c(-c4ccccc4)nc3n12
MDA-MB-435
  GI50: 61.2 µM (inactive)
Hs-578T
  GI50: 39.5 µM (inactive)
786-0
  GI50: 82.6 µM (inactive)
PC-3
  GI50: 62.8 µM (inactive)
UO-31
  GI50: 46.5 µM (inactive)
K562
  GI50: > 100 µM (inactive)
EKVX
  GI50: 21.9 µM (inactive)
OVCAR-5
  GI50: 37 µM (inactive)
MOLT-4
  GI50: > 100 µM (inactive)
A498
  GI50: 46.8 µM (inactive)
T47D
  GI50: > 100 µM (inactive)
HCT-15
  GI50: 38.4 µM
NCI-H226
  GI50: > 100 µM (inactive)
Malme-3M
  GI50: 26.2 µM (inactive)
ACHN
  GI50: 21.8 µM (inactive)
SF-539
  GI50: > 100 µM (inactive)
LOX IMVI
  GI50: 48.8 µM (inactive)
BT-549
  GI50: 69 µM (inactive)
SW-620
  GI50: 36.9 µM (inactive)
CCRF-CEM
  GI50: > 100 µM (inactive)
SF-268
  GI50: > 100 µM (inactive)
HCT-116
  GI50: 26.6 µM (inactive)
NCI-H460
  GI50: 32.2 µM (inactive)
HL-60
  GI50: 72.6 µM (inactive)
OVCAR-3
  GI50: 68.5 µM (inactive)
A549
  GI50: 51.2 µM (inactive)
MCF7
  GI50: 40.2 µM (inactive)
SNB-75
  GI50: > 100 µM (inactive)
SK-MEL-2
  GI50: > 100 µM (inactive)
OVCAR-8
  GI50: 26.5 µM (inactive)
M14
  GI50: 49.3 µM (inactive)
TK-10
  GI50: 59 µM (inactive)
RXF 393
  GI50: > 100 µM (inactive)
UACC-62
  GI50: 38.9 µM (inactive)
UACC-257
  GI50: 23.5 µM (inactive)
SNB-19
  GI50: 20.3 µM (inactive)
IGROV-1
  GI50: 2.11 µM (inactive)
KM12
  GI50: 26.9 µM (inactive)
SK-MEL-5
  GI50: 48.4 µM (inactive)
HOP-92
  GI50: > 100 µM (inactive)
NCI-H23
  GI50: > 100 µM (inactive)
NCI-H522
  GI50: 21.3 µM (inactive)
NCI/ADR-RES
  GI50: > 100 µM (inactive)
HOP-62
  GI50: 55.1 µM (inactive)
SK-OV-3
  GI50: 37.7 µM (inactive)
SF-295
  GI50: 55.3 µM (inactive)
COLO 205
  GI50: 43.3 µM (inactive)
CAKI-1
  GI50: > 100 µM (inactive)
MDA-MB-231
  GI50: > 100 µM (inactive)
HT-29
  GI50: 34.1 µM (inactive)
SK-MEL-28
  GI50: 39.5 µM (inactive)
RPMI-8226
  GI50: > 100 µM (inactive)
OVCAR-4
  GI50: > 100 µM (inactive)
U-251
  GI50: 58.5 µM (inactive)
SN12C
  GI50: 38.8 µM (inactive)
DU-145
  GI50: 58.1 µM (inactive)

## COc1cc(NS(C)(=O)=O)ccc1N1Cc2c[nH]c3ccc4nc(C)cc1c4c23
MDA-N
  GI50: 19.6 µM (inactive)
MDA-MB-435
  GI50: 17.5 µM (inactive)
Hs-578T
  GI50: 40.6 µM (inactive)
786-0
  GI50: 20.7 µM (inactive)
PC-3
  GI50: > 100 µM (inactive)
UO-31
  GI50: > 100 µM (inactive)
K562
  GI50: 26.5 µM (inactive)
EKVX
  GI50: 67.5 µM (inactive)
OVCAR-5
  GI50: > 100 µM (inactive)
MOLT-4
  GI50: 48.5 µM (inactive)
A498
  GI50: > 100 µM (inactive)
HCT-15
  GI50: > 100 µM
NCI-H226
  GI50: 38.8 µM (inactive)
ACHN
  GI50: > 100 µM (inactive)
LOX IMVI
  GI50: > 100 µM (inactive)
BT-549
  GI50: > 100 µM (inactive)
SW-620
  GI50: > 100 µM (inactive)
CCRF-CEM
  GI50: 52.1 µM (inactive)
SF-268
  GI50: 22.7 µM (inactive)
HCT-116
  GI50: 62.8 µM (inactive)
HCC 2998
  GI50: > 100 µM (inactive)
NCI-H460
  GI50: 86.1 µM (inactive)
HL-60
  GI50: 91.4 µM (inactive)
OVCAR-3
  GI50: 31 µM (inactive)
A549
  GI50: 62.5 µM (inactive)
MCF7
  GI50: 52.6 µM (inactive)
SNB-75
  GI50: 19.7 µM (inactive)
SK-MEL-2
  GI50: 74 µM (inactive)
OVCAR-8
  GI50: 33 µM (inactive)
M14
  GI50: > 100 µM (inactive)
TK-10
  GI50: > 100 µM (inactive)
RXF 393
  GI50: 32 µM (inactive)
UACC-62
  GI50: 72.3 µM (inactive)
UACC-257
  GI50: > 100 µM (inactive)
SNB-19
  GI50: 18.7 µM (inactive)
IGROV-1
  GI50: 33.3 µM (inactive)
KM12
  GI50: > 100 µM (inactive)
SK-MEL-5
  GI50: 97.7 µM (inactive)
HOP-92
  GI50: 24.9 µM (inactive)
NCI-H23
  GI50: 88.9 µM (inactive)
NCI-H522
  GI50: 26.2 µM (inactive)
NCI/ADR-RES
  GI50: > 100 µM (inactive)
HOP-62
  GI50: 25.9 µM (inactive)
SK-OV-3
  GI50: 41.6 µM (inactive)
SF-295
  GI50: 54.8 µM (inactive)
COLO 205
  GI50: > 100 µM (inactive)
CAKI-1
  GI50: 26.4 µM (inactive)
MDA-MB-231
  GI50: 64 µM (inactive)
HT-29
  GI50: > 100 µM (inactive)
SK-MEL-28
  GI50: 35.5 µM (inactive)
RPMI-8226
  GI50: 31.5 µM (inactive)
OVCAR-4
  GI50: 49.9 µM (inactive)
U-251
  GI50: 32.3 µM (inactive)
DU-145
  GI50: > 100 µM (inactive)
